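Exposure lasted 48 hours, with cells grown in 96-well plates and compounds tested at five concentrations. Here, GI50 denotes the concentration required for 50% inhibition of growth.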 The source made the active and inactive calls. No stated cut-off is given here; in the data, active = GI50 up to about 1.1 µM and inactive = higher.
Experiments:
Experiment in all cases: inhibition of tumour cell growth, NCI panel, 48 h
[1] = test system: OVCAR-3
[2] = test system: HCT-15
[3] = test system: DMS-114
[4] = test system: M14
[5] = test system: LXFL 529
[6] = test system: HOP-62
[7] = test system: COLO 205
[8] = test system: SF-268
[9] = test system: DLD-1
[10] = test system: SK-OV-3
[11] = test system: SF-295
[12] = test system: SK-MEL-28
[13] = test system: CAKI-1
[14] = test system: KM-20L2
[15] = test system: SNB-75
[16] = test system: NCI-H226
[17] = test system: HL-60
[18] = test system: UACC-257
[19] = test system: SF-539
[20] = test system: HCT-116
[21] = test system: CCRF-CEM
[22] = test system: NCI-H23
[23] = test system: K562
[24] = test system: XF498
[25] = test system: M19-MEL
[26] = test system: U-251
[27] = test system: TK-10
[28] = test system: SW-620
[29] = test system: KM12
[30] = test system: SR
[31] = test system: HT-29
[32] = test system: SK-MEL-2
[33] = test system: UACC-62
[34] = test system: IGROV-1
[35] = test system: 786-0
[36] = test system: RXF 393
[37] = test system: OVCAR-8
[38] = test system: OVCAR-4
[39] = test system: HOP-92
[40] = test system: RPMI-8226
[41] = test system: NCI-H460
[42] = test system: NCI-H522
[43] = test system: A549
[44] = test system: SN12C
[45] = test system: ACHN
[46] = test system: SK-MEL-5
[47] = test system: MOLT-4
[48] = test system: EKVX
[49] = test system: LOX IMVI
[50] = test system: DMS-273
[51] = test system: Malme-3M
[52] = test system: SNB-78
[53] = test system: HCC 2998
[54] = test system: UO-31
[55] = test system: A498
[56] = test system: OVCAR-5
[57] = test system: SNB-19

In the case of `COc1cccc(OC)c1C(=O)OCc1ccccc1`, the GI50 [1] is reported as > 100 µM (inactive), the GI50 [2] is reported as over 100 µM and the GI50 [3] is reported as > 100 µM (inactive). For the same compound, the GI50 [4] was > 100 µM (inactive), the GI50 [5] was > 100 µM (inactive) and the GI50 [6] was > 100 µM (inactive). The GI50 [7] was > 100 µM (inactive), the GI50 [8] was > 100 µM (inactive) and the GI50 [9] was > 100 µM (inactive). For the same compound, the GI50 [10] was > 100 µM (inactive), the GI50 [11] was > 100 µM (inactive) and the GI50 [12] was > 100 µM (inactive). The GI50 [13] was > 100 µM (inactive), the GI50 [14] was > 100 µM (inactive) and the GI50 [15] was > 100 µM (inactive). The GI50 [16] was > 100 µM (inactive), the GI50 [17] was > 100 µM (inactive) and the GI50 [18] was > 100 µM (inactive). The GI50 [19] was > 100 µM (inactive), the GI50 [20] was > 100 µM (inactive) and the GI50 [21] was > 100 µM (inactive). The GI50 [22] was > 100 µM (inactive), the GI50 [23] was > 100 µM (inactive) and the GI50 [24] was > 100 µM (inactive). The GI50 [25] was > 100 µM (inactive), the GI50 [26] was > 100 µM (inactive) and the GI50 [27] was > 100 µM (inactive). The GI50 [28] was > 100 µM (inactive), the GI50 [29] was > 100 µM (inactive) and the GI50 [30] was > 100 µM (inactive). The GI50 [31] was > 100 µM (inactive), the GI50 [32] was > 100 µM (inactive) and the GI50 [33] was > 100 µM (inactive). For the same compound, the GI50 [34] was > 100 µM (inactive), the GI50 [35] was > 100 µM (inactive) and the GI50 [36] was > 100 µM (inactive). The GI50 [37] was > 100 µM (inactive), the GI50 [38] was > 100 µM (inactive) and the GI50 [39] was > 100 µM (inactive). The GI50 [40] was > 100 µM (inactive), the GI50 [41] was > 100 µM (inactive) and the GI50 [42] was > 100 µM (inactive). The GI50 [43] was > 100 µM (inactive), the GI50 [44] was > 100 µM (inactive) and the GI50 [45] was > 100 µM (inactive). The GI50 [46] was > 100 µM (inactive), the GI50 [47] was > 100 µM (inactive) and the GI50 [48] was > 100 µM (inactive).

In the case of `CCOC(=O)C(Cc1ccc2ccccc2c1)(Cc1ccc2ccccc2c1)C(C)=O`, the GI50 [2] is reported as 8.47 µM, the GI50 [4] is reported as > 10 µM (inactive) and the GI50 [5] is reported as 4.47 µM (inactive). The GI50 [6] was 7.53 µM (inactive), the GI50 [7] was > 10 µM (inactive) and the GI50 [9] was 2.69 µM (inactive). The GI50 [10] was > 10 µM (inactive), the GI50 [14] was > 10 µM (inactive) and the GI50 [21] was 5.13 µM (inactive). The GI50 [49] was > 10 µM (inactive), the GI50 [23] was 1.67 µM (inactive) and the GI50 [24] was 3.39 µM (inactive). The GI50 [25] was > 10 µM (inactive), the GI50 [50] was 5.38 µM (inactive) and the GI50 [26] was > 10 µM (inactive). For the same compound, the GI50 [28] was > 10 µM (inactive), the GI50 [51] was 3.28 µM (inactive) and the GI50 [33] was > 10 µM (inactive). The GI50 [34] was > 10 µM (inactive), the GI50 [35] was 4.92 µM (inactive) and the GI50 [38] was 8.67 µM (inactive). For the same compound, the GI50 [39] was 5.41 µM (inactive), the GI50 [40] was 1.86 µM (inactive) and the GI50 [52] was > 10 µM (inactive). The GI50 [41] was 7.31 µM (inactive), the GI50 [43] was 3.78 µM (inactive) and the GI50 [44] was > 10 µM (inactive). For the same compound, the GI50 [45] was > 10 µM (inactive), the GI50 [53] was 3.02 µM (inactive) and the GI50 [47] was 0.635 µM (active).

`NS(=O)(=O)C1CCCCC1C(=O)NNC(=O)C(=O)Nc1nnc(S)[nH]1` (configuration not stated) was tested, and the GI50 [2] was over 100 µM, the GI50 [3] was > 100 µM (inactive) and the GI50 [4] was > 100 µM (inactive). For the same compound, the GI50 [5] was > 100 µM (inactive), the GI50 [6] was > 100 µM (inactive) and the GI50 [54] was > 100 µM (inactive). For the same compound, the GI50 [7] was > 100 µM (inactive), the GI50 [8] was > 100 µM (inactive) and the GI50 [9] was > 100 µM (inactive). The GI50 [10] was > 100 µM (inactive), the GI50 [11] was > 100 µM (inactive) and the GI50 [12] was > 100 µM (inactive). The GI50 [13] was > 100 µM (inactive), the GI50 [14] was > 100 µM (inactive) and the GI50 [55] was > 100 µM (inactive). For the same compound, the GI50 [15] was > 100 µM (inactive), the GI50 [16] was > 100 µM (inactive) and the GI50 [17] was > 100 µM (inactive). The GI50 [18] was > 100 µM (inactive), the GI50 [19] was > 100 µM (inactive) and the GI50 [20] was > 100 µM (inactive). For the same compound, the GI50 [21] was > 100 µM (inactive), the GI50 [22] was > 100 µM (inactive) and the GI50 [49] was > 100 µM (inactive). The GI50 [23] was > 100 µM (inactive), the GI50 [24] was > 100 µM (inactive) and the GI50 [25] was > 100 µM (inactive). The GI50 [50] was > 100 µM (inactive), the GI50 [26] was > 100 µM (inactive) and the GI50 [27] was > 100 µM (inactive). The GI50 [28] was > 100 µM (inactive), the GI50 [29] was > 100 µM (inactive) and the GI50 [30] was > 100 µM (inactive). The GI50 [31] was > 100 µM (inactive), the GI50 [32] was > 100 µM (inactive) and the GI50 [33] was > 100 µM (inactive). The GI50 [34] was > 100 µM (inactive), the GI50 [56] was > 100 µM (inactive) and the GI50 [36] was > 100 µM (inactive). For the same compound, the GI50 [37] was > 100 µM (inactive), the GI50 [38] was > 100 µM (inactive) and the GI50 [39] was > 100 µM (inactive). The GI50 [40] was > 100 µM (inactive), the GI50 [52] was > 100 µM (inactive) and the GI50 [41] was > 100 µM (inactive). The GI50 [42] was > 100 µM (inactive), the GI50 [43] was > 100 µM (inactive) and the GI50 [44] was > 100 µM (inactive). For the same compound, the GI50 [45] was > 100 µM (inactive), the GI50 [53] was > 100 µM (inactive) and the GI50 [46] was > 100 µM (inactive). The GI50 [47] was > 100 µM (inactive), the GI50 [48] was > 100 µM (inactive) and the GI50 [57] was > 100 µM (inactive).
